Data from patent US9040519B2, “Fused tetracyclic pyrido [4,3-B] indole and pyrido [3,4-B] indole derivatives and methods of use” (Medivation Technologies, Inc., priority 2010, dated 2015).

Legend:
[1] = molecular target: T1, human recombinant serotonin (5-Hydroxytryptamine) 5-HT7 receptor (Homo sapiens, UniProt P34969); assay: Serotonin 5-HT7 radioligand binding ([3H]LSD); conditions: compound at 0.1 μM; CHO cells; read-out: Percentage inhibition of ligand binding, Serotonin 5-HT7
T1 construct: expressed in transfected cells; host or cells: CHO
T1 sequence (P34969 whole entry): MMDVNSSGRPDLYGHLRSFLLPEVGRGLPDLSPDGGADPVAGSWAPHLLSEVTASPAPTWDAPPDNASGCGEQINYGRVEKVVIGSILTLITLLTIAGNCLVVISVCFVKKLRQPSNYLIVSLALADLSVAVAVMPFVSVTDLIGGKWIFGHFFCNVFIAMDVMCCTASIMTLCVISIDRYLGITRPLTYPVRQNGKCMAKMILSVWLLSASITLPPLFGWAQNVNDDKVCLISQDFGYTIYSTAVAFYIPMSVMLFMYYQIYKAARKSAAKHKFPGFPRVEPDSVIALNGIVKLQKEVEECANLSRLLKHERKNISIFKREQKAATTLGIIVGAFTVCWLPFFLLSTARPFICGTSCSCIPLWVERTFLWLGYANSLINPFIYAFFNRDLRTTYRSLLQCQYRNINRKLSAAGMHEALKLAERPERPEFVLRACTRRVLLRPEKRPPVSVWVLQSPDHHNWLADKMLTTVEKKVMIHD
Protocol: To evaluate in radioligand binding assays the activity of compounds of the invention, human recombinant serotonin (5-Hydroxytryptamine) 5-HT7 receptor expressed in Chinese hamster ovary (CHO) cells (Roth, B. et al, J. Pharmacol. Exp. Ther. 268:1403, 1994; Shen, Y. et al, J. Biol. Chem. 268:18200, 1993) in a modified Tris-HCl buffer (50 mM Tris-HCl, pH 7.4, 10 mM MgCl2, 0.5 mM EDTA) was used. Compounds of invention were incubated with 5.5 nM [^3H] Lysergic acid diethylamide (LSD) for 2 h at 25° C. Non-specific binding was estimated in the presence of 10 μM Serotonin (5-HT). Receptor proteins were filtered and washed, the filters were then counted to determine [^3H]LSD specifically bound. Compounds were screened at 1 μM or lower, using 1% DMSO as vehicle. Biochemical assay results are presented as the percent inhibition of specific binding in Table 4.

[2] = molecular target: T2, human recombinant dopamine D2L receptor (Homo sapiens, UniProt P14416); assay: Dopamine D2L radioligand binding ([3H]Spiperone); conditions: compound at 1 μM; CHO cells; read-out: Percentage inhibition of ligand binding, Dopamine D2L
T2 construct: expressed in transfected cells; host or cells: CHO
T2 sequence (P14416 whole entry): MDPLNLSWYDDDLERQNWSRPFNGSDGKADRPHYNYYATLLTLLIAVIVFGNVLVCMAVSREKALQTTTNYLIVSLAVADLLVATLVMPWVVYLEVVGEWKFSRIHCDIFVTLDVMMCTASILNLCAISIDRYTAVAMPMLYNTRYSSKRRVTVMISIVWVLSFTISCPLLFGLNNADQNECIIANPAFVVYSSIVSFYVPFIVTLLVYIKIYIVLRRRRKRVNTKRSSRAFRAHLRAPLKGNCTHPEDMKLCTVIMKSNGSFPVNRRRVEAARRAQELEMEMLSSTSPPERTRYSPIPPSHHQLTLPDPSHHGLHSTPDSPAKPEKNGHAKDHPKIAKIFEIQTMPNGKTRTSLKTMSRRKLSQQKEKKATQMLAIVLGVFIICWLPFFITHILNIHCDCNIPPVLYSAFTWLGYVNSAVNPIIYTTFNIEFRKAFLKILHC
Protocol: To evaluate in radioligand binding assays the activity of compounds of the invention, human recombinant dopamine D2L receptor expressed in Chinese hamster ovary (CHO) cells (Grandy, D. et al, Proc. Natl. Acad. Sci. USA. 86:9762, 1989; Hayes, G. et al, Mol. Endocrinol. 6:920, 1992) in a modified Tris-HCl buffer (50 mM Tris-HCl, pH 7.4, 1.4 mM Ascorbic Acid, 0.001% BSA, 150 mM NaCl) was used. Compounds of the invention were incubated with 0.16 nM [^3H]Spiperone for 120 min at 25° C. Non-specific binding was estimated in the presence of 10 μM Haloperidol. Receptor proteins were filtered and washed, the filters were then counted to determine [^3H]Spiperone specifically bound. Compounds were screened at 1 μM or lower, using 1% DMSO as vehicle. Biochemical assay results are presented as the percent inhibition of specific binding in Table 3.

[3] = molecular target: T3, rat adrenergic α1A receptor (Rattus norvegicus, UniProt P43140); assay: Adrenergic α1A radioligand binding ([3H]Prazosin); conditions: compound at 0.1 μM; Wistar Rat submaxillary glands; read-out: Percentage inhibition of ligand binding, Adrenergic α1A
T3 construct: rat adrenergic α1A receptor obtained from Wistar Rat submaxillary glands; from tissue; host or cells: Wistar rat submaxillary glands
T3 sequence (P43140 1-466): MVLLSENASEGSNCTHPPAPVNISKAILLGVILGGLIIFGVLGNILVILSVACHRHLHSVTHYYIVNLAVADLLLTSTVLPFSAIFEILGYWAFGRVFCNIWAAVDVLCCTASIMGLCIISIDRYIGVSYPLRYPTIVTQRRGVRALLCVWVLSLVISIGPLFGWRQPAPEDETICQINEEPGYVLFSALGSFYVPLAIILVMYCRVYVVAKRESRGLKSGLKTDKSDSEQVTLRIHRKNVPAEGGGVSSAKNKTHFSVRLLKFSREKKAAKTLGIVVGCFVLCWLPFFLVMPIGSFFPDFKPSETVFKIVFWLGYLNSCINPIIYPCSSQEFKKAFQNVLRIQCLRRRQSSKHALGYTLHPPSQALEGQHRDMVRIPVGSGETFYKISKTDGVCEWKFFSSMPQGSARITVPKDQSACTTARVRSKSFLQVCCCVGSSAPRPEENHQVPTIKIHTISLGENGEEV
Protocol: To evaluate in radioligand binding assays the activity of compounds of the invention, rat adrenergic α1A receptor obtained from Wistar Rat submaxillary glands (Michel, A. et al, Br. J. Pharmacol. 98:883, 1989) in a modified Tris-HCl buffer (50 mM Tris-HCl buffer, pH 7.4, 0.5 mM EDTA) was used. Compounds of the invention were incubated with 0.25 nM [^3H]Prazosin for 60 min at 25° C. Non-specific binding was estimated in the presence of 10 μM phentolamine. Receptor proteins were filtered and washed, the filters were then counted to determine [^3H]Prazosin specifically bound. Compounds of the invention were screened at 1 μM or lower, using 1% DMSO as vehicle. Biochemical assay results are presented as the percent inhibition of specific binding in Table 3.

[4] = molecular target: T4, human recombinant adrenergic α2C receptor (Homo sapiens, UniProt P18825); assay: Adrenergic α2C radioligand binding ([3H]MK-912); conditions: compound at 0.1 μM; insect Sf9 cells; read-out: Percentage inhibition of ligand binding, Adrenergic α2C
T4 construct: expressed in transfected cells; host or cells: insect Sf9 cells
T4 sequence (P18825 1-462): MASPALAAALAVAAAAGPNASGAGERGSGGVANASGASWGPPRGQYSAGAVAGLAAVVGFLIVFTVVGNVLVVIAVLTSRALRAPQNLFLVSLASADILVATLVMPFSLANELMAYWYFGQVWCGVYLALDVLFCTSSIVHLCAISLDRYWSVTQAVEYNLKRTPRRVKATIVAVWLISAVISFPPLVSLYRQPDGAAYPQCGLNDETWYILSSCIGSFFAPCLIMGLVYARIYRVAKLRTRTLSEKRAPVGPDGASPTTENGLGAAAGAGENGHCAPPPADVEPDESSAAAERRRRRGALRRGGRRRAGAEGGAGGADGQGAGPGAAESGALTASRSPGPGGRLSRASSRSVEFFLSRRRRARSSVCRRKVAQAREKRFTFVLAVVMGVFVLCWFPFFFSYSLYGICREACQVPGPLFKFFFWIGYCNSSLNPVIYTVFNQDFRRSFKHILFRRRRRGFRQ
Protocol: To evaluate in radioligand binding assays the activity of compounds of the invention, human recombinant adrenergic α2C receptor expressed in insect Sf9 cells (Uhlen, S. et al, J. Pharmacol. Exp. Ther. 271:1558, 1994) in a modified Tris-HCl buffer (50 mM Tris-HCl, pH 7.4, 12.5 mM MgCl2, 2 mM EDTA) was used. Compounds of the invention were incubated with 1 nM [^3H]MK-912 for 60 min at 25° C. Non-specific binding was estimated in the presence of 10 μM WB-4101. Receptor proteins were filtered and washed, the filters were then counted to determine [^3H]MK-912 specifically bound. Compounds were screened at 1 μM or lower, using 1% DMSO as vehicle. Biochemical assay results are presented as the percent inhibition of specific binding in Table 3.

Row | Compound | inhibition at 0.1 µM [1] [%] | inhibition at 1 µM [2] [%] | inhibition at 0.1 µM [3] [%] | inhibition at 0.1 µM [4] [%]
1 | Cc1ccc2c(c1)c1c3n2C(c2ccccc2)=CCC3(C)CN(C)C1 (stereo not drawn) [Compound 10, 2,3a,10-trimethyl-6-phenyl-2,3,3a,4-tetrahydro-1H-indolo[3,2,1-ij][1,6]naphthyridine] | 12 | 9 | -4 | 2
2 | Cc1ccc2c(c1)c1c3n2CC(c2ccncc2)=CCC3(C)CN(C)C1 (stereo not drawn) [Compound 11, 2,3a,10-trimethyl-6-pyridin-4-yl-1,2,3,3a,4,7-hexahydro-2,7a-diaza-cyclohepta[jk]fluorene] | -8 | 3 | 25 | 1
3 | Cc1ccc2c(c1)c1c3n2C(c2ccccc2)CCC3(C)CN(C)C1 (stereo not drawn) [Compound 12, 2,3a,10-trimethyl-6-phenyl-2,3,3a,4,5,6-hexahydro-1H-indolo[3,2,1-ij][1,6]naphthyridine] | -17 | 5 | 12 | -3
